The text below walks through data of US9580390B2, “Indazole compounds as kinase inhibitors and method of treating cancer with same” (University Health Network, priority 2011, dated 2017).

One may read the IC50 as the concentration that gives 50% inhibition. As usually defined, the GI50 is the concentration at which growth is held to half of that of the control.

Where only a bound is given, the exact number is not on record here.

One assay addresses T1, human TTK (Homo sapiens, UniProt P33981).
T1 construct: amino terminal GST fusion of full length human TTK; purchased Invitrogen
T1 sequence (P33981 1-857): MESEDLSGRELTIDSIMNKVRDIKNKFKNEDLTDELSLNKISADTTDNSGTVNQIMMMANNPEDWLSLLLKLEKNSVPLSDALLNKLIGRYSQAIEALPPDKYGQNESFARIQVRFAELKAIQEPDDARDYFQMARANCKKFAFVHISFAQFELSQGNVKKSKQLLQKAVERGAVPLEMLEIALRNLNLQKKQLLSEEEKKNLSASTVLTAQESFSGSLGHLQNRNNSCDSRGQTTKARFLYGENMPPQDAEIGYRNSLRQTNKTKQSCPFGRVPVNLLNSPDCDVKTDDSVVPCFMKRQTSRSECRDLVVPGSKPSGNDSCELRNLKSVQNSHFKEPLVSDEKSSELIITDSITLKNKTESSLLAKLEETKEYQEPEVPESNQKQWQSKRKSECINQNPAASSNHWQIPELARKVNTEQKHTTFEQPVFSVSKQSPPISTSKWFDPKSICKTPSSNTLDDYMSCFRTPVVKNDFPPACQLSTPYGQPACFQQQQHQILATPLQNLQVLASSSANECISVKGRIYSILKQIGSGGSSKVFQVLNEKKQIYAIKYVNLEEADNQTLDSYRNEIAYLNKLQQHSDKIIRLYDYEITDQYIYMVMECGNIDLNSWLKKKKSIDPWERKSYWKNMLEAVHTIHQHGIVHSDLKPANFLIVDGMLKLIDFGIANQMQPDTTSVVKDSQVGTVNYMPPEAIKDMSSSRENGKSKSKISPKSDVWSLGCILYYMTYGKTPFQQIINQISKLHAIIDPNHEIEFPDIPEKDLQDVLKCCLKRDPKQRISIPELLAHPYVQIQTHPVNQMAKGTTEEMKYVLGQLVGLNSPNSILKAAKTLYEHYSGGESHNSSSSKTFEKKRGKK
Briefly: TTK inhibition assay (indirect ELISA). The format is biochemical. The settings on record: read-out: TTK IC50 Range.

The subject of a further assay is Breast cancer cells. The assay is described as follows: Cancer cell line growth inhibition (SRB assay). The format is cell-based. The settings on record: Homo sapiens; MDA-MB-468; read-out: Cancer Cell Line GI50 Range MDA-MB-468.
For assay [1], the system named is colon cancer cells (HCT116). The assay is described as follows: Cancer cell line growth inhibition (SRB assay). The format is cell-based. The settings on record: Homo sapiens, HCT-116; read-out: Cancer Cell Line GI50 Range HCT116. (In general: The SRB assay estimates cell density from bound dye.)
The test system of assay [2] is ovarian cancer cells (PA-1). Briefly: Cancer cell line growth inhibition (SRB assay). The format is cell-based. The following applies: Homo sapiens, PA-1; read-out: Cancer Cell Line GI50 Range PA-1.
In a further assay the test system is TICs (Colon 12). Briefly: Colon tumor-initiating cell growth inhibition (Alamar Blue). The format is cell-based. The settings on record: 216 h; Colon 12 TICs, 9 days; read-out: Tumor Initiating Cell GI50 Range Colon 12. (Resazurin is reduced to fluorescent resorufin, in cell work by metabolically active cells.)
In another assay the test system is TICs (Ovarian 2393A). Briefly: Ovarian tumor-initiating cell growth inhibition (Alamar Blue). The format is cell-based. The following applies: 144 h; Ovarian 2393A TICs, 6 days; read-out: Tumor Initiating Cell GI50 Range Ovarain 2393A.

Consider `O=C(N[C@H](c1ccccc1)C1CC1)c1ccc2[nH]nc(-c3ccc(N4C5CCC4CC(O)C5)cc3)c2c1` (stereo partly drawn) [Example A362, N-((S)-cyclopropyl(phenyl)methyl)-3-(4-((1R,3S,5S)-3-hydroxy-8-azabicyclo[3.2.1]octan-8-yl)phenyl)-1H-indazole-5-carboxamide], for which, on human TTK, the IC50 was less than 0.1 µM. Moreover, the GI50 (with Breast cancer cells; in assay [1]; in assay [2]; with TICs (Colon 12); in the assay on TICs (Ovarian 2393A)) was less than 0.1 µM in each case.
Consider `O=C(N[C@H](c1ccccn1)C1CCCC1)c1ccc2[nH]nc(-c3ccc(N4C5CCC4CC(O)C5)cc3)c2c1` (stereo partly drawn) [Example A360, N-((S)-cyclopentyl(pyridin-2-yl)methyl)-3-(4-((1R,3S,5S)-3-hydroxy-8-azabicyclo[3.2.1]octan-8-yl)phenyl)-1H-indazole-5-carboxamide], for which the IC50 at human TTK was less than 0.1 µM. Moreover, the GI50 (in the assay with Breast cancer cells; in assay [1]; in assay [2]; with TICs (Colon 12); in the assay on TICs (Ovarian 2393A)) was less than 0.1 µM in each case.
Turning to `O=C(N[C@H](c1ccccn1)C1CCCC1)c1ccc2[nH]nc(-c3ccc(N4CCCN(C5COC5)CC4)cc3)c2c1` [Example A370, (S)-N-(cyclopentyl(pyridin-2-yl)methyl)-3-(4-(4-(oxetan-3-yl)-1,4-diazepan-1-yl)phenyl)-1H-indazole-5-carboxamide], the IC50 on human TTK was less than 0.1 µM. Also, the GI50 in the assay with Breast cancer cells is less than 0.1 µM; in assay [1], less than 0.1 µM; in assay [2], less than 0.1 µM; in the assay with TICs (Colon 12) it was less than 0.1 µM; with TICs (Ovarian 2393A) it was 0.1 to 0.5 µM.
On to `O=C(N[C@H](c1ccccn1)C1CCCC1)c1ccc2[nH]nc(-c3ccc(N4C5COCC4CC(O)C5)cc3)c2c1` (stereo partly drawn) [Example A420, N-((S)-cyclopentyl(pyridin-2-yl)methyl)-3-(4-((1R,5S,7R)-7-hydroxy-3-oxa-9-azabicyclo[3.3.1]nonan-9-yl)phenyl)-1H-indazole-5-carboxamide], for which, at human TTK, the half-inhibitory concentration (IC50) was less than 0.1 µM. For the same compound, the 50% growth inhibitory concentration (GI50) (with Breast cancer cells; in assay [1]; in assay [2]; in the assay on TICs (Colon 12); in the assay on TICs (Ovarian 2393A)) was less than 0.1 µM throughout.
Regarding `CC(C)[C@H](NC(=O)c1ccc2[nH]nc(-c3ccc(N4C5CCC4CC(O)C5)cc3)c2c1)c1ccccc1Cl` (stereo partly drawn) [Example A356, N-((S)-1-(2-chlorophenyl)-2-methylpropyl)-3-(4-((1R,3S,5S)-3-hydroxy-8-azabicyclo[3.2.1]octan-8-yl)phenyl)-1H-indazole-5-carboxamide], at human TTK, the half-inhibitory concentration (IC50) is less than 0.1 µM. The GI50 (with Breast cancer cells; in assay [1]; in assay [2]; in the assay on TICs (Colon 12); with TICs (Ovarian 2393A)) was less than 0.1 µM in each case.
In the case of `CC1=CC2(CCN(C)CC2)Oc2ccc(-c3n[nH]c4ccc(C(=O)N[C@H](c5ccccn5)C5CC5)cc34)cc21` [Example A260, (S)-N-(cyclopropyl(pyridin-2-yl)methyl)-3-(1′,4-dimethylspiro[chromene-2,4′-piperidin]-6-yl)-1H-indazole-5-carboxamide], at human TTK, the half-inhibitory concentration (IC50) was less than 0.1 µM. In addition, the GI50 was less than 0.1 µM in the assay on Breast cancer cells; less than 0.1 µM in assay [1]; less than 0.1 µM in assay [2]; 0.1 to 0.5 µM in the assay on TICs (Colon 12); less than 0.1 µM in the assay on TICs (Ovarian 2393A).
Take `CC(C)[C@H](NC(=O)c1ccc2[nH]nc(-c3ccc(N4CC(C5COC5)C4)cc3)c2c1)c1ccccc1Cl` [Example A310, (S)-N-(1-(2-chlorophenyl)-2-methylpropyl)-3-(4-(3-(oxetan-3-yl)azetidin-1-yl)phenyl)-1H-indazole-5-carboxamide]: at human TTK, the half-maximal inhibitory concentration (IC50) is less than 0.1 µM. The 50% growth inhibitory concentration (GI50) (in the assay on Breast cancer cells; in assay [1]; in assay [2]; with TICs (Colon 12); in the assay with TICs (Ovarian 2393A)) was less than 0.1 µM each time.
As for `O=C(N[C@@H](c1ccccc1F)C1CC1)c1ccc2[nH]nc(-c3ccc(N4C5CCC4CC(O)C5)cc3)c2c1` (stereo partly drawn) [Example A266, N-((R)-cyclopropyl(2-fluorophenyl)methyl)-3-(4-((1R,3R,5S)-3-hydroxy-8-azabicyclo[3.2.1]octan-8-yl)phenyl)-1H-indazole-5-carboxamide], the IC50 on human TTK is less than 0.1 µM. The concentration for 50% growth inhibition (GI50) (in the assay on Breast cancer cells; in assay [1]; in assay [2]; in the assay on TICs (Colon 12); with TICs (Ovarian 2393A)) was less than 0.1 µM throughout.
As to `O=C(N[C@H](c1ccccn1)C1CC1)c1ccc2[nH]nc(-c3ccc4c(c3)C(=O)CC3(CCN(C5COC5)CC3)O4)c2c1` [Example A264, (S)-N-(cyclopropyl(pyridin-2-yl)methyl)-3-(1′-(oxetan-3-yl)-4-oxospiro[chroman-2,4′-piperidin]-6-yl)-1H-indazole-5-carboxamide], on human TTK, the IC50 is less than 0.1 µM. Moreover, the 50% growth inhibitory concentration (GI50) in the assay on Breast cancer cells was less than 0.1 µM; in assay [1], less than 0.1 µM; in assay [2], less than 0.1 µM; with TICs (Colon 12) it was 0.1 to 0.5 µM; with TICs (Ovarian 2393A), 0.1 to 0.5 µM.
As for `CC(C)C[C@H](NC(=O)c1ccc2[nH]nc(-c3ccc(N4CC(N5CCOCC5)C4)cc3)c2c1)c1ccccc1Cl` [Example A315, (S)-N-(1-(2-chlorophenyl)-3-methylbutyl)-3-(4-(3-morpholinoazetidin-1-yl)phenyl)-1H-indazole-5-carboxamide], the half-inhibitory concentration (IC50) on human TTK was less than 0.1 µM. Further, the concentration for 50% growth inhibition (GI50) is 0.1 to 0.5 µM with Breast cancer cells; less than 0.1 µM in assay [1]; less than 0.1 µM in assay [2]; less than 0.1 µM in the assay on TICs (Colon 12); 0.1 to 0.5 µM in the assay on TICs (Ovarian 2393A).
As to `O=C(N[C@H](c1ccccc1F)C1CC1)c1ccc2[nH]nc(-c3ccc(N4C5CCC4CC(O)C5)cc3)c2c1` (stereo partly drawn) [Example A265, N-((S)-cyclopropyl(2-fluorophenyl)methyl)-3-(4-((1R,3R,5S)-3-hydroxy-8-azabicyclo[3.2.1]octan-8-yl)phenyl)-1H-indazole-5-carboxamide], at human TTK, the IC50 was less than 0.1 µM. The concentration for 50% growth inhibition (GI50) (with Breast cancer cells; in assay [1]; in assay [2]; in the assay with TICs (Colon 12); in the assay with TICs (Ovarian 2393A)) was less than 0.1 µM in each case.
As to `O=C(NCC1(c2ccccc2)CCOCC1)c1ccc2[nH]nc(-c3ccc(N4[C@@H]5CC[C@H]4COC5)cc3)c2c1` [Example A502, 3-(4-((1R,5S)-3-oxa-8-azabicyclo[3.2.1]octan-8-yl)phenyl)-N-((4-phenyltetrahydro-2H-pyran-4-yl)methyl)-1H-indazole-5-carboxamide], the half-maximal inhibitory concentration (IC50) at human TTK was less than 0.1 µM. The GI50 (with Breast cancer cells; in assay [1]; in assay [2]; with TICs (Colon 12); in the assay with TICs (Ovarian 2393A)) was less than 0.1 µM in each case.
Turning to `CN1[C@@H]2CC[C@H]1C[C@@H](Oc1ccc(-c3n[nH]c4ccc(C(=O)NCC5(c6ccccc6)CCOCC5)cc34)cc1)C2` [Example A484, 3-(4-(((1R,3R,5S)-8-methyl-8-azabicyclo[3.2.1]octan-3-yl)oxy)phenyl)-N-((4-phenyltetrahydro-2H-pyran-4-yl)methyl)-1H-indazole-5-carboxamide], on human TTK, the half-inhibitory concentration (IC50) is less than 0.1 µM. The GI50 in the assay on Breast cancer cells is 0.1 to 0.5 µM; in assay [1], less than 0.1 µM; in assay [2] it was less than 0.1 µM; in the assay on TICs (Colon 12) it was 0.1 to 0.5 µM; in the assay on TICs (Ovarian 2393A), 0.1 to 0.5 µM.
With `CC(C)CC(NC(=O)c1ccc2[nH]nc(-c3ccc(O[C@H]4C[C@H]5CC[C@@H](C4)N5C=O)cc3)c2c1)c1ccccn1` (stereo partly drawn) [Example A339], the half-inhibitory concentration (IC50) on human TTK was less than 0.1 µM. For the same compound, the GI50 (in the assay on Breast cancer cells; in assay [1]; in assay [2]; in the assay on TICs (Colon 12); with TICs (Ovarian 2393A)) was less than 0.1 µM in each case.
On to `O=C(N[C@@H](c1ccccn1)C1CCCC1)c1ccc2[nH]nc(-c3ccc(N4CCN(C5COC5)CC4)cc3)c2c1` [Example A411, (R)-N-(cyclopentyl(pyridin-2-yl)methyl)-3-(4-(4-(oxetan-3-yl)piperazin-1-yl)phenyl)-1H-indazole-5-carboxamide], for which the concentration for half-maximal inhibition (IC50) on human TTK is less than 0.1 µM. Also, the concentration for 50% growth inhibition (GI50) (in the assay on Breast cancer cells; in assay [1]; in assay [2]; with TICs (Colon 12); with TICs (Ovarian 2393A)) was less than 0.1 µM each time.
